Data from US20240360146A1, “BRUTON'S TYROSINE KINASE AND MUTANT DEGRADER, COMPOSITION AND APPLICATION THEREOF” (HANGZHOU HEALZEN THERAPEUTICS CO., LTD., priority 2021, published 2024).

Molecular target: T1, BTK (Homo sapiens, UniProt Q06187)
T1 construct: endogenous in cells; host or cells: Mino cells
Experiment: BTK degradation activity test in Mino cells
Type: cell-based
Settings: 16 h incubation, Western blot or Elisa
Protocol: Mino cell line cells were seeded at 500,000 to 1,000,000 cells/well in a 6-well plate. The compounds were diluted to different concentrations and added to the plate, and after 16 h of incubation, cells were harvested. After lysing the cells, the total protein concentration in each well was determined using the BCA method. The amount of BTK was determined using Western blot or Elisa method. The amount of undegraded BTK protein at each drug concentration was compared with the amount of BTK protein in the blank control group to calculate the degradation rate. The degradation curve was drawn based on the degradation rate at each concentration, and the half degradation concentration (DC50) was calculated by fitting.

T1 sequence (Q06187 whole entry): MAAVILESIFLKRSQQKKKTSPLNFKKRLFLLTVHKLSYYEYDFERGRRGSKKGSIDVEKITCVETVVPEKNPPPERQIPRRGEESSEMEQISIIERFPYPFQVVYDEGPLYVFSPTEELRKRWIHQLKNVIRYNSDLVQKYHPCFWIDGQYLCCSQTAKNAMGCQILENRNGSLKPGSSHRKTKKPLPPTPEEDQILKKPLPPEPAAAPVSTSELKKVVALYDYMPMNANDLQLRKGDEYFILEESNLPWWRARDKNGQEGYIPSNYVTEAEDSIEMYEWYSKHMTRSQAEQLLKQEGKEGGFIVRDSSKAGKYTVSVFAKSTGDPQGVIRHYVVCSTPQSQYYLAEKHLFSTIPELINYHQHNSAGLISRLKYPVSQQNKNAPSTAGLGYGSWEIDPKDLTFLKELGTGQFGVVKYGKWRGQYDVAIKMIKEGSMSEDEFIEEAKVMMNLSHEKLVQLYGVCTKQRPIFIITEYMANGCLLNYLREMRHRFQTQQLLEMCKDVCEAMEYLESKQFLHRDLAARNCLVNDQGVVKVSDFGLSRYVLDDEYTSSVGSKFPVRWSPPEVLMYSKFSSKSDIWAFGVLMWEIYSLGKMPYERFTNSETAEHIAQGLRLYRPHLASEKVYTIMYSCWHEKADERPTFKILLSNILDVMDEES

DC50, < 1 nM:
NC(=O)c1nnc(N2CC3CC(N4CC5CCCN5C4=O)C2C3)nc1Nc1ccc(C2CCN(CC3CCN(c4ccc5c(c4)C(=O)N(C4CCC(=O)NC4=O)C5=O)CC3)CC2)cc1 (stereo not shown) [Compound 074, 5-((4-(1-((1-(2-(2,6-dioxopiperidin-3-yl)-1,3-dioxoisoindol-5-yl)piperidin-4-yl)methyl)piperidin-4-yl)phenyl)amino)-3-(6-(3-oxotetrahydro-1H-pyrrolo[1,2-c]imidazol-2(3H)-yl)-2-azabicyclo[2.2.1]heptan-2-yl)-1,2,4-triazin-6-carboxamide]
CN1CCN([C@@H]2CCCN(c3nnc(C(N)=O)c(Nc4ccc(C5CCN(C[C@H]6CCN(c7ccc8c(c7)C(=O)N(C7CCC(=O)NC7=O)C8=O)C6)CC5)c(F)c4)n3)C2)C1=O (stereo partly drawn) [Compound 158, 5-((4-(1-(((3R)-1-(2-(2,6-dioxopiperidin-3-yl)-1,3-dioxoisoindolin-5-yl)pyrrolidin-3-yl)methyl)piperidin-4-yl)-3-fluorophenyl)amino)-3-((R)-3-(3-methyl-2-oxoimidazolin-1-yl)piperidin-1-yl)-1,2,4-triazin-6-carboxamide]
NC(=O)c1nnc(N2CCCC(N3CCN(c4ccccc4)C3=O)C2)nc1Nc1ccc(C2CCN(CC3CCN(c4cc5c(cc4F)C(=O)N(C4CCC(=O)NC4=O)C5=O)CC3)CC2)cc1 (stereo not shown) [Compound 098, 5-((4-(1-((1-(2-(2,6-dioxopiperidin-3-yl)-6-fluoro-1,3-dioxoisoindol-5-yl)piperidin-4-yl)methyl)piperidin-4-yl)phenyl)amino)-3-(3-(2-oxo-3-phenylimidazolin-1-yl)piperidin-1-yl)-1,2,4-triazin-6-carboxamide]
CN1CCN(C2CCCN(c3nnc(C(N)=O)c(Nc4ccc5c(c4)CCN(C4CN(c6ccc7c(c6)C(=O)N(C6CCC(=O)NC6=O)C7=O)C4)C5)n3)C2)C1=O (stereo not shown) [Compound 080]
NC(=O)c1ncc(N2CCCC(N3CCN(C4CCCC4)C3=O)C2)nc1Nc1ccc2c(c1)CCN(CC1CCN(c3ccc4c(c3)C(=O)N(C3CCC(=O)NC3=O)C4=O)CC1)C2 (stereo not shown) [Compound 030, 5-(3-(3-cyclopentyl-2-oxoimidazolin-1-yl)piperidin-1-yl)-3-((2-((1-(2-(2,6-dioxopiperidin-3-yl)-1,3-dioxoisoindol-5-yl)piperidin-4-yl)methyl)-1,2,3,4-tetrahydroisoquinolin-6-yl)amino)pyrazin-2-carboxamide]
CN1CCN(C2CC3CC2N(c2nnc(C(N)=O)c(Nc4ccc5c(c4)CCN(C4CN(c6ccc7c(c6)C(=O)N(C6CCC(=O)NC6=O)C7=O)C4)C5)n2)C3)C1=O (stereo not shown) [Compound 106, 5-((2-(1-(2-(2,6-dioxopiperidin-3-yl)-1,3-dioxoisoindol-5-yl)azetidine-3-yl)-1,2,3,4-tetrahydroisoquinolin-6-yl)amino)-3-(6-(3-methyl-2-oxoimidazolin-1-yl)-2-azabicyclo[2.2.1]heptan-2-yl)-1,2,4-triazin-6-carboxamide]
CN1CCN(C2CCCN(c3nnc(C(N)=O)c(Nc4ccc(C5(C)CCN(CC6CCN(c7ccc8c(c7)C(=O)N(C7CCC(=O)NC7=O)C8=O)C6)CC5)cc4)n3)C2)C1=O (stereo not shown) [Compound 035, 5-((4-(1-((1-(2-(2,6-dioxopiperidin-3-yl)-1,3-dioxoisoindolin-5-yl)pyrrolidin-3-yl)methyl)-4-methylpiperidin-4-yl)phenyl)amino)-3-(3-(3-methyl-2-oxoimidazolin-1-yl)piperidin-1-yl)-1,2,4-triazin-6-carboxamide]
CN1CCN(C2CC3CC2N(c2nnc(C(N)=O)c(Nc4ccc(C5CCN(C6CN(c7ccc8c(c7)C(=O)N(C7CCC(=O)NC7=O)C8=O)C6)CC5)cc4)n2)C3)C1=O (stereo not shown) [Compound 049, 5-((4-(1-(1-(2-(2,6-dioxopiperidin-3-yl)-1,3-dioxoisoindolin-5-yl)azetidin-3-yl)piperidin-4-yl)phenyl)amino)-3-(-6-(3-methyl-2-oxoimidazolin-1-yl)-2-azabicyclo[2.2.1]heptan-2-yl)-1,2,4-triazin-6-carboxamide]
CN1CCN([C@@H]2CCCN(c3nnc(C(N)=O)c(Nc4ccc(N5CCN(CC6CCN(c7ccnc8c(C(=O)NC9CCC(=O)NC9=O)cccc78)CC6)CC5)c(F)c4)n3)C2)C1=O (stereo partly drawn) [Compound 250, 4-(4-((4-(4-((6-carbamoyl-3-((R)-3-(3-methyl-2-oxoimidazolidin-1-yl)piperidin-1-yl)-1,2,4-triazin-5-yl)amino)-2-fluorophenyl)piperazin-1-yl)methyl)piperidin-1-yl)-N-(2,6-dioxopiperidin-3-yl)quinolin-8-carboxamide]
CC1(c2ccc(Nc3nc(N4CCCC(N5CCN(C6CCCCC6)C5=O)C4)cnc3C(N)=O)cc2)CCN(C2CN(c3ccc4c(c3)C(=O)N(C3CCC(=O)NC3=O)C4=O)C2)CC1 (stereo not shown) [Compound 003, 5-(3-(3-cyclohexyl-2-oxoimidazolin-1-yl)piperidin-1-yl)-3-((4-(1-(1-(2-(2,6-dioxopiperidin-3-yl)-1,3-dioxoisoindol-5-yl)azetidin-3-yl)-4-methylpiperidin-4-yl)phenyl)amino)pyrazin-2-carboxamide]
CN1CCN(C2CC3CC2N(c2nnc(C(N)=O)c(Nc4ccc(C5CCN(C6CN(c7ccc8c(c7)C(=O)N(C7CCC(=O)NC7=O)C8=O)C6)CC5)cc4)n2)C3)C1=O (stereo not shown) [Compound 103, 5-((4-(1-(1-(2-(2,6-dioxopiperidin-3-yl)-1,3-dioxoisoindol-5-yl)azetidin-3-yl)piperidin-4-yl)phenyl)amino)-3-(6-(3-methyl-2-oxoimidazolin-1-yl)-2-azabicyclo[2.2.1]heptan-2-yl)-1,2,4-triazin-6-carboxamide]
CN1CCN([C@@H]2CCCN(c3nnc(C(N)=O)c(Nc4ccc(N5CCN(CC6CCN(c7ccc(NC8CCC(=O)NC8=O)cc7)CC6)CC5)c(F)c4)n3)C2)C1=O (stereo partly drawn) [Compound 253, 5-((4-(4-((1-(4-((2,6-dioxopiperidin-3-yl)amino)phenyl)piperidin-4-yl)methyl)piperazin-1-yl)-3-fluorophenyl)amino)-3-((R)-3-(3-methyl-2-oxoimidazolidin-1-yl)piperidin-1-yl)-1,2,4-triazin-6-carboxamide]
CN1CCN(C2CC3CC2N(c2nnc(C(N)=O)c(Nc4ccc(C5CCN(C6CCN(c7ccc8c(c7)C(=O)N(C7CCC(=O)NC7=O)C8=O)CC6)CC5)cc4)n2)C3)C1=O (stereo not shown) [Compound 109, 5-((4-(1′-(2-(2,6-dioxopiperidin-3-yl)-1,3-dioxoisoindol-5-yl)-[1,4′-bipiperidin]-4-yl)phenyl)amino)-3-(6-(3-methyl-2-oxoimidazolin-1-yl)-2-azabicyclo[2.2.1]heptan-2-yl)-1,2,4-triazin-6-carboxamide]
Cc1cc(N2CCC(CN3CCN(c4ccc(Nc5nc(N6CCC[C@@H](N7CCN(C)C7=O)C6)nnc5C(N)=O)cc4F)CC3)C2)ccc1NC1CCC(=O)NC1=O (stereo partly drawn) [Compound 206, 5-((4-(4-((1-(4-((2,6-dioxopiperidin-3-yl)amino)-3-methylphenyl)pyrrolidin-3-yl)methyl)piperazin-1-yl)-3-fluorophenyl)amino)-3-((R)-3-(3-methyl-2-oxoimidazolidin-1-yl)piperidin-1-yl)-1,2,4-triazin-6-carboxamide]
CN1CCN([C@@H]2CCCN(c3nnc(C(N)=O)c(Nc4ccc(N5CCN(CC6CCN(c7cc8c(cc7F)C(=O)N(C7CCC(=O)NC7=O)C8=O)C6)CC5)c(F)c4)n3)C2)C1=O (stereo partly drawn) [Compound 169, 5-((4-(4-((1-(2-(2,6-dioxopiperidin-3-yl)-6-fluoro-1,3-dioxoisoindolin-5-yl)pyrrolidin-3-yl)methyl)piperazin-1-yl)-3-fluorophenyl)amino)-3-((R)-3-(3-methyl-2-oxoimidazolidin-1-yl)piperidin-1-yl)-1,2,4-triazin-6-carboxamide]
CN1CCN([C@@H]2CCCN(c3nnc(C(N)=O)c(Nc4ccc(N5CCN(CC6CCN(c7ccc8c9c(oc8c7)C(=O)N(C7CCC(=O)NC7=O)C9)C6)CC5)c(F)c4)n3)C2)C1=O (stereo partly drawn) [Compound 221, 5-((4-(4-((1-(2-(2,6-dioxopiperidin-3-yl)-3-oxo-2,3-dihydro-H-benzofuro[2,3-c]pyrrol-6-yl)pyrrolidin-3-yl)methyl)piperazin-1-yl)-3-fluorophenyl)amino)-3-((R)-3-(3-methyl-2-oxoimidazolidin-1-yl)piperidin-1-yl)-1,2,4-triazin-6-carboxamide]
NC(=O)c1nnc(N2CCCC(N3CCN(C4CC4)C3=O)C2)nc1Nc1ccc(C2CCN(CC3CCN(c4ccc5c(c4)C(=O)N(C4CCC(=O)NC4=O)C5=O)CC3)CC2)cc1 (stereo not shown) [Compound 058, 3-(3-(3-cyclopropyl-2-oxoimidazolin-1-yl)piperidin-1-yl)-5-((4-(1-((1-(2-(2,6-dioxopiperidin-3-yl)-1,3-dioxoisoindol-5-yl)piperidin-4-yl)methyl)piperidin-4-yl)phenyl)amino)-1,2,4-triazin-6-carboxamide]
NC(=O)c1nnc(N2CCCC(N3CCN(c4ccccc4)C3=O)C2)nc1Nc1ccc(N2CCN(CC3CCN(c4ccc5c(c4)C(=O)N(C4CCC(=O)NC4=O)C5=O)CC3)CC2)cc1 (stereo not shown) [Compound 095, 5-((4-(4-((1-(2-(2,6-dioxopiperidin-3-yl)-1,3-dioxoisoindol-5-yl)piperidin-4-yl)methyl)piperazin-1-yl)phenyl)amino)-3-(3-(2-oxo-3-phenylimidazolin-1-yl)piperidin-1-yl)-1,2,4-triazin-6-carboxamide]
CC1(c2ccc(Nc3nc(N4CCCC(N5CCN(C6CCOCC6)C5=O)C4)cnc3C(N)=O)cc2)CCN(C2CN(c3ccc4c(c3)C(=O)N(C3CCC(=O)NC3=O)C4=O)C2)CC1 (stereo not shown) [Compound 004, 3-((4-(1-(1-(2-(2,6-dioxopiperidin-3-yl)-1,3-dioxoisoindol-5-yl)azetidine-3-yl)-4-methylpiperidin-4-yl)phenyl)amino)-5-(3-(2-oxo-3-(tetrahydro-2H-pyran-4-yl)imidazolin-1-yl)piperidin-1-yl)pyrazin-2-carboxamide]
